Results as given in paper PMC4297247 (Molecular cancer therapeutics, 2014).

What was measured:
[1] = system: cell lines of the LAR subtype; conditions: cited from earlier work
basal-like TNBCs = conditions: cell lines and clinically; cited from earlier work
[2] = system: mesenchymal-like cell lines, BT549, Hs578T, and MDA-MB231; assay: Kinase inhibitor screen, CellTiter Glo cell viability, one week; format: cell-based, human; conditions: did not reach statistical significance (p = 0.12)
[3] = system: mesenchymal-like TNBC cell lines; conditions: cited from earlier work

CC(O)(CS(=O)(=O)c1ccc(F)cc1)C(=O)Nc1ccc(C#N)c(C(F)(F)F)c1 (stereo not shown) [bicalutamide]
selective toxicity by TNBC subtype [1]: selectively toxic to cell lines of the LAR subtype

N.N.[Cl][Pt][Cl] [cisplatin]
toxicity by TNBC subtype (basal-like TNBCs): more toxic to basal-like TNBCs

Cc1nc(Nc2ncc(C(=O)Nc3c(C)cccc3Cl)s2)cc(N2CCN(CCO)CC2)n1 [dasatinib]
sensitivity compared to cells of other TNBC subtypes [2]: more sensitive to dasatinib than cells of other TNBC subtypes
preferential toxicity by TNBC subtype [3]: preferential toxicity for mesenchymal-like TNBC cell lines
